Key:
[1] = test system: adult subjects with relapsing MS; assay: Fatigue-related symptoms, FSIQ-RMS weekly symptoms score, change from baseline to Week 108; assay type: in vivo, human
Procedure: In some embodiments, the patient-reported outcome questionnaire is the symptom domain of the FSIQ-RMS. The FSIQ-RMS symptom domain (FSIQ-RMS-S) consists of seven items assessing fatigue-related symptoms with a recall period of 24 hours measured on an 11-point numeric rating scale; the standardized symptom domain score ranges from 0 to 100 with a higher score indicating greater fatigue. This domain (i.e., section 1 of the questionnaire) is completed on 7 consecutive days.
The patient-reported outcome questionnaire used for the below Examples is the Fatigue Symptoms and Impact Questionnaire—Relapsing Multiple Sclerosis (FSIQ-RMS). The FSIQ-RMS is an MS specific 20-item PRO measure that comprises 2 domains: one measuring MS symptoms (7 items) and one measuring MS-related impacts (13 items). The 7 symptom items and 13 impact items (in 3 impacts subdomains: physical, cognitive and emotional, and coping) are presented below.
For the MS symptoms domain, the FSIQ-RMS asks about a patient's fatigue-related symptoms of relapsing MS over the past 24 hours while doing routine daily activities (e.g., housework, yard work, shopping, working, etc.) for Items 1-6 or while at rest (e.g., reading a book, watching TV, etc.) for Item 7. Patients are asked to select a response on a scale of 0 to 10 that best describes their experience and are asked to not skip any questions, with no answers being right or wrong.
Secondary efficacy variables and testing strategy: Four secondary efficacy endpoints were analyzed as per the statistical testing strategy outlined in FIG. 1. • Change from baseline to Week 108 in fatigue-related symptoms as measured by the symptoms domain of the FSIQ-RMS patient-reported outcome [Fatigue] • Cumulative number of combined unique active lesions from baseline to Week 108 on brain MRI [CUALs] • Time to first 12-week confirmed disability accumulation (CDA) from baseline to EOS on Expanded Disability Status Scale (EDSS) [12-week CDA] • Time to first 24-week CDA from baseline to EOS on EDSS [24-week CDA]
The FSIQ-RMS symptom domain (FSIQ-RMS-S) consists of seven items assessing fatigue-related symptoms with a recall period of 24 hours measured on an 11-point numeric rating scale; the standardized symptom domain score ranges from 0 to 100 with a higher score indicating greater fatigue. This domain (i.e., section 1 of the questionnaire) is completed on 7 consecutive days.
FSIQ-RMS was completed during the pre-randomization period, at Visits 6, 7, 10, and 12 (Weeks 12, 24, 60, 84), 14 (EOT), and at unscheduled visits due to relapses (R1, R2, etc.) or other unscheduled visits (U1, U2, etc.) as described below. If applicable, FSIQ-RMS was performed at the corresponding visits in the PTOP.
After randomization, the symptoms domain of the FSIQ-RMS (i.e., section 1 of the questionnaire) was completed by the subject at home on a daily basis, starting in the evening of the day of a visit when the FSIQ-RMS was administered (Day 1 of questionnaire administration cycle) and during the 6 subsequent days (i.e., over 7 days in total). Subjects returned the completed FSIQ-RMS diary at the next scheduled visit. On the seventh day, the subject completed the impact domain of the FSIQ-RMS (i.e., section 2 of the questionnaire). If applicable, at the end of the PTOP, the FSIQ-RMS was completed prior to Visit 14A (Week 108), ideally, during the 7 consecutive days preceding the visit.

[2] = test system: Patients (18-55 years) with RMS; assay: No evidence of disease activity (NEDA-3) status, baseline to week 108; assay type: in vivo, human
Procedure: Patients (18-55 years) with RMS (expanded disability status scale scores: 0-5.5) were randomized (1:1) to receive ponesimod (PON) 20 mg or teriflunomide (TER) 14 mg for 108 weeks. MRI assessments were: volume of T2 lesions; mean number of new gadolinium-enhancing (Gd+) T1 lesions and new/enlarging T2 lesions; and absence of active MRI lesions at week 108. NEDA-3 status (absence of confirmed relapse, Gd+T1 lesions and new/enlarging T2 lesions on annual MRIs, and 12-week confirmed disability accumulation) was evaluated from baseline to week 108.

[3] = test system: P-gp, BCRP, OATP1B1, or OATP1B3 transporters; assay: Transporter substrate assessment; assay type: in vitro ADME
Excerpt: Drugs that are inhibitors of these transporters are unlikely to impact the PK of ponesimod.

S1P receptor 1 = S1P receptor 1 (Homo sapiens, UniProt P21453); assay: S1P receptor binding / activity
Sequence of S1P receptor 1 (P21453 whole entry): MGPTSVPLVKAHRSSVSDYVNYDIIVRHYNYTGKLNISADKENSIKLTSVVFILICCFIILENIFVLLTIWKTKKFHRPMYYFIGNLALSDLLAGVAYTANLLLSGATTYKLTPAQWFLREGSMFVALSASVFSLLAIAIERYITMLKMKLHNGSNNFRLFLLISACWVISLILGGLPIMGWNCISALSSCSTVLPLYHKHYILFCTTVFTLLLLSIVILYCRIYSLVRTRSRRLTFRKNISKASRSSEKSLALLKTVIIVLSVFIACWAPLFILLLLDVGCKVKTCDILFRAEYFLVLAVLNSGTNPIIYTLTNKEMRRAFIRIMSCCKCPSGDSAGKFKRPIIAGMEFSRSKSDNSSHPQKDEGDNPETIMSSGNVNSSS
Excerpt: Ponesimod is extensively metabolized prior to excretion in humans, though unchanged ponesimod was the main circulating component in plasma. […] M13 and M12 are respectively about 20% and 6% of total drug-related exposure.

pregnant rabbits = assay: Dose-range finding study in pregnant rabbits, oral; assay type: in vivo, rabbit; settings: 0, 6, 20, or 60 mg/kg/day; at lowest dose tested
Excerpt: No maternal toxicity was observed.

[4] = test system: CYP450, UGT and non-CYP450 oxidative enzymes; assay: In vitro studies with human liver preparations (metabolism); assay type: in vitro ADME
Excerpt: Experiments with human liver preparations indicate that metabolism of ponesimod to M13 occurs primarily through a combination of non-Cytochrome P450 (CYP450) enzymatic activities. Multiple CYP450 (CYP2J2, CYP3A4, CYP3A5, CYP4F3A, and CYP4F12) and non-CYP450 enzymes catalyze the oxidation of ponesimod to M12. Ponesimod also undergoes direct glucuronidation (mainly UGT1A1 and UGT2B7).

[5] = Week 108, baseline EDSS <3.5 (title: ≤3.5)
[6] = Week 108, baseline fatigue below the median
[7] = Week 108, no Gd+ T1 lesions at baseline
[8] = Week 108, no prior DMT treatment

CCC/N=C1\S/C(=C\c2ccc(OC[C@H](O)CO)c(Cl)c2)C(=O)N1c1ccccc1C [Ponesimod, (R)-5-[3-chloro-4-(2,3-dihydroxy-propoxy)-benz[Z]ylidene]-2-([Z]-propylimino)-3-o-tolyl-thiazolidin-4-one]
FSIQ-RMS change from baseline to Week 108, mean difference ponesimod vs teriflunomide ([1]; Full Analysis Set): −3.57 | Change from baseline to Week 108 in FSIQ-RMS weekly symptoms score (mean, MMRM) ([1]; Full Analysis Set, increase = worsening): −0.01 | Change in FSIQ-RMS-S total score: Improved (<−6.3), patients ([1]; Week 108, Full Analysis Set): 30.5% | Change in FSIQ-RMS-S total score: Stable (−6.3 < × < +6.3), patients ([1]; Week 108, Full Analysis Set): 38.4% | Change in FSIQ-RMS-S total score: Stable or Improved, patients ([1]; Week 108, Full Analysis Set): 68.9% | Change in FSIQ-RMS-S total score: Worsened (≥6.3), patients ([1]; Week 108, Full Analysis Set): 31.1% | FSIQ-RMS change: Improved (<−6.3), patients [1, 5]: 30.6% | FSIQ-RMS change: Stable (−6.3 < × < +6.3), patients [1, 5]: 40.8% | FSIQ-RMS change: Stable or Improved, patients [1, 5]: 71.4% | FSIQ-RMS change: Worsened (≥6.3), patients [1, 5]: 28.6% | FSIQ-RMS change: Improved (<−6.3), patients [1, 6]: 19.1% | FSIQ-RMS change: Stable (−6.3 < × < +6.3), patients [1, 6]: 45.2% | FSIQ-RMS change: Stable or Improved, patients [1, 6]: 64.4% | FSIQ-RMS change: Worsened (≥6.3), patients [1, 6]: 35.6% | FSIQ-RMS change: Stable (−6.3 < × < +6.3), patients [1, 7]: 37.4% | FSIQ-RMS change: Stable or Improved, patients [1, 7]: 67.5% | FSIQ-RMS change: Worsened (≥6.3), patients [1, 7]: 32.5% | FSIQ-RMS change: Improved (<−6.3), patients [1, 8]: 31.4% | FSIQ-RMS change: Stable (−6.3 < × < +6.3), patients [1, 8]: 44.0% | FSIQ-RMS change: Stable or Improved, patients [1, 8]: 75.4% | FSIQ-RMS change: Worsened (≥6.3), patients [1, 8]: 24.6% | FSIQ-RMS change: Improved (<−6.3), patients ([1]; Week 108, no prior DMT treatment, listed as ponesimod): 31.4% | Odds ratio PON vs TER for NEDA-3 [2]: 1.70 | Patients achieving NEDA-3 [2]: 28.2% | Substrate of P-gp, BCRP, OATP1B1, or OATP1B3 transporters [3]: not a substrate | Binding to S1P receptor 1 (S1P receptor 1): binds with high affinity | Findings in dose-range finding study in pregnant rabbits (pregnant rabbits): an increase in embryofetal death and fetal limb malformation | Contribution of enzymes to metabolism [4]: without major contribution by any single enzyme
